Assay results taken from US20240207261A1, “METHODS FOR TREATING SMALL CELL LUNG CANCER AND OTHER NEUR[…]” (BOARD OF REGENTS, THE UNIVERSITY OF TEXAS SYSTEM, priority 2021, published 2024).
“And” between values parts separate entries of the source, which are not always exact repeats. Equal entries are not always repeated. Where two headings read alike, the source gives them in different places.

Key:
[1] = clinical testing; cited from earlier work
[2] = system: cGAS, phospho STING, PD-L1 in SCLC cells; test: Western blot of cGAS-STING pathway and PD-L1; type: cell-based, human; conditions: 24 and 48h
Protocol: (§1) Protein lysate were isolated from SCLC cells treated with 0.9 nM lurbinectedin or DMSO for 24 and 48h. Nitrocellulose membranes were incubated with primary antibodies (1:1000) for Human SLFN11 (Santa Cruz Biotechnology), phospho-(S345) CHK1 Cell Signaling Technologies (CST), phospho-(S4/S8) RPA32 (Bethyl laboratories), phospho-(S139) TH2AX (CST), cleaved caspase-3 (CST), phospho-(S366) STING (SAB Biotech), cGAS (CST), PD-L1(CST), GAPDH (Santa Cruz Biotechnology) and Vinculin (Sigma-Aldrich) overnight. Secondary anti-goat, anti-mouse (Santa Cruz Biotechnology) and anti-rabbit HRP linked antibodies (CST) were used and detected using the Chemidoc imaging system, image captured with Image Studio Version 3.1 software (BioRad).

SCLC cell lines = test: 96 hr proliferation assay, SCLC cell line panel (Example 1); type: cell-based, human and mouse; conditions: for IC50: 12 human-derived and 3 mouse model-derived SCLC cell lines
Protocol: In this preclinical study, the inventors investigated the therapeutic efficacy of lurbinectedin in large number of profiled SCLC cell lines representing the four SCLC subtypes (A, N, P and I) to identify candidate markers of drug sensitivity and resistance.
(§2) A 12 SCLC cell line panel representing SCLC-A, N, P and I subtypes, developed at MD Anderson Cancer Center, was screened against lurbinectedin in 96 hr proliferation assays (FIG. 2). Western Blotting: Three SCLC cell lines were treated with 1 nM of lurbinectedin for 24 and 48h and then subjected for protein isolation and Western blotting for pChK1, pRPA32, TH2AX.

H865 xenografts = test: Flank xenograft efficacy study, SLFN11 low; type: in vivo, mouse; conditions: H865, lower SLFN11; 0.1 mg/kg i.v. once per week
Protocol: (§3) For the […] mouse model, 6-week-old female athymic nude mice (Envigo) were used. Animals were maintained in accordance with the Institutional Animal Care and Use Committee (IACUC) of The University of Texas MD Anderson Cancer Center and the NIH Guidelines for the Care and Use of Laboratory Animals. Experiments were performed under protocol: 00001191-RN03.
(§4) High SLFN11 protein expressing SCLC cell line DMS79 and low SLFN11 protein expressing cell line H865 were used for generation of xenografts. For subcutaneous injections, 1×10^6 SCLC cells were injected into one flank of each mouse with PBS: Matrigel (1:1, BD Biosciences). At an average tumor volume of 100 mm^3, mice were randomly allocated to three groups (n=5). Mice received either Vehicle (0.9% saline), lurbinectedin (0.1 mg/kg i.v. once per week), or cisplatin (6 mg/kg i.p. once per week). Tumor volumes were measured every other day using digital calipers.
(§5) Differences in IC50 values between subgroups were tested using ANOVA. Differences between SLFN11 high and low groups, defined using the bi-modality index were tested using an un-paired t-test. Spearman rank correlation was used to assess the association between IC50 values and RPPA protein markers, The Benjamini & Hochberg (1995) method was used to control false discovery rate (FDR). […]

human SCLC cell lines = test: Cell proliferation assay (Cell Titer Glo), panel of 21 human SCLC cell lines; type: cell-based; conditions: for IC50: 21 human SCLC cell lines
Protocol: Human SCLC cell lines (21 cell lines) were purchased from ATCC. Cell lines were tested and authenticated by short tandem repeat profiling (DNA fingerprinting) and not cultured for greater than 6-months and were routinely tested for Mycoplasma contamination. Cell lines were cultured in either RPMI or HITES medium with 10% fetal bovine serum and 1% pen-strep, at 37° C. in a humidified chamber with 5% C02.
Cells were seeded in 96-well plates at 2,000 cells per well in triplicate for each cell line. After 24 hours, the cells in each well were treated with a lurbinectedin or with vehicle control. Four days later, proliferation was assayed by Cell Titer Glo (Promega, Fitchburg, WI). For single drug treatments, median inhibitory concentration (IC50) values were estimated by the Drexplorer software using date from duplicate experiments (14). For drug combinations, the area under the curve (AUC) of the observed (or experimental) effect of the combination was compared to the predicted additive effect. Data was subsequently presented as a ratio of the experimental effect relative to the predicted additive effect based on the Bliss Independence model, as previously reported (15). Using 10% above or below the predicted additive effect as a cut-off, the inventors then assigned the following groups: Observed/predicted<−0.1=greater than additive; […]; Observed/predicted <0.1 and >−0.1=additive.
Differences in IC50 values between subgroups were tested using ANOVA. Differences between SLFN11 high and low groups, defined using the bi-modality index (16), were tested using an un-paired t-test. Spearman rank correlation was used to assess the association between IC50 values and RPPA protein markers, The Benjamini & Hochberg (1995) method (17) was used to control false discovery rate (FDR). RPPA generates a quantitative measurement of expression of over 200 total and phosphorylated proteins, these values can be correlated to other variables such as IC50 values, and be compared between biomarker defined groups using standard statistical techniques. All analyses were performed using the R software.

[3] = system: phospho CHK1(S345), phospho RPA32(S4/S8), phospho TH2AX in SCLC cells; test: Western blot of replication stress and DNA damage markers (Example 2); type: cell-based, human; conditions: 0.9 nM, 24 and 48h, versus DMSO, all four subtypes
Protocol: as §1
Based on its mechanism of action, the inventors predicted that lurbinectedin would lead to increased replication stress and DNA damage in SCLC models. To test this, SCLC cells from all four subtypes were treated with lurbinectedin (0.9 nM/L) for 24 and 48h and markers of DNA damage and replication stress were assayed by Western blot.

[4] = system: pChK1, pRPA32, TH2AX in SCLC cell lines; test: Western blot of DNA damage markers (Example 1); type: cell-based; conditions: 1 nM for 24 or 48 hours, sensitive cell lines
Protocol: as §2

metastatic SCLC = conditions: 37 of 102 patients; 95% CI 26.2-45.2; cited from earlier work
SLFN11 = test: Western blot of SLFN11 expression after treatment; type: cell-based, human
Protocol: as §1

DMS79 and H209 cells = test: Proliferation assay after siRNA knockdown of SLFN11; type: cell-based, human; conditions: DMS79 and H209, versus parental and scrambled siRNA controls
Protocol: For SLFN11 gene silencing, pooled small interfering RNAs (siRNAs) targeting SLFN11 (L-016764-01-0005) or its corresponding scramble control (D-001810-10-05; GE Dharmacon) were transfected into DMS79 and H209 cells for 72 hours using Lipofectamine 2000 (Invitrogen) according to the manufacturer's protocol. The cells were then plated for 96h proliferation assays. Knock down efficiency was validated by Western blotting.

DMS79 xenografts = test: Flank xenograft efficacy study, SLFN11 high; type: in vivo, mouse; conditions: 0.1 mg/kg i.v. once per week
Protocol: as §3, §4, §5

COc1ccc2[nH]c3c(c2c1)CCN[C@]31CS[C@@H]2c3c(OC(C)=O)c(C)c4c(c3[C@H](COC1=O)N1[C@@H]2[C@H]2c3c(cc(C)c(OC)c3O)C[C@@H]([C@@H]1O)N2C)OCO4 [lurbinectedin, Lurbinectedin]
peak plasma concentration [1]: 148.2-153.8 ng/mL and 188.8-196.0 nM | phospho STING and PD-L1 [2]: only observed in cell lines from the SCLC-P and SCLC-I subtypes | protein levels of cGAS ([2]; versus DMSO, all cell lines tested): induced an increase | IC50 (SCLC cell lines; read-out: IC50 range): 0.08 to 1.84 nM | IC50 (SCLC cell lines; read-out: median IC50): 0.52 nM | IC50 of SLFN11-high versus SLFN11-low SCLC cells (SCLC cell lines; p=0.0035 by t-test): lower IC50 than SLFN11-low cells | subtype specific difference in sensitivity (SCLC cell lines; subtypes A, N, P and I): no subtype specific difference | sensitivity of xenografts (H865 xenografts): significantly less sensitive | IC50 (human SCLC cell lines; read-out: IC50 range): 0.06 to 1.83 nM | IC50 (human SCLC cell lines; read-out: median IC50): 0.46 nM | difference in in vitro activity between subtypes (human SCLC cell lines; SCLC-A, SCLC-N, SCLC-P, SCLC-I): no significant difference | fold change (FC) of IC50 between SLFN11 high and low cell lines (human SCLC cell lines; bimodal separation of SLFN11 by RPPA): 3.26 and 3.2 | markers of replication stress phospho CHK1(S345) and phospho RPA32(S4/S8) [3]: increases in markers of replication stress | markers of DNA damage (TH2AX, ChK1, RPA32) [4]: increased markers of DNA damage | overall response by investigator assessment (metastatic SCLC): 35.2% | change in SLFN11 levels (SLFN11; DMS-79): minimal decrease | change in SLFN11 levels (SLFN11; H1048): undetectable level | sensitivity after SLFN11 knockdown (DMS79 and H209 cells): reduced sensitivity | tumor growth versus vehicle (DMS79 xenografts): significantly reduced tumor growth
